From publication PMC12865225 (Clinical and Translational Science, 2026)
Like-named read-outs stand apart in the source and are kept apart here.

Columns and labels:
[1] = cited from earlier work; for Total CL: mean value from IV studies
[2] = cited from earlier work
OAT4 = target: T1, OAT4 (Homo sapiens, UniProt Q9NSA0); experiment: Uptake transport assay in OAT4-expressing HEK293 cells; type: cell-based; conditions: for transport by OAT4: 2 and 50 μM, 10 min; for Vmax (pmol/106 cells/min) OAT4: uptake, 2 min
T1 construct: expressed in transfected cells; host or cells: HEK293 (recombinant baculovirus-mediated transduction)
T1 sequence (Q9NSA0 1-550): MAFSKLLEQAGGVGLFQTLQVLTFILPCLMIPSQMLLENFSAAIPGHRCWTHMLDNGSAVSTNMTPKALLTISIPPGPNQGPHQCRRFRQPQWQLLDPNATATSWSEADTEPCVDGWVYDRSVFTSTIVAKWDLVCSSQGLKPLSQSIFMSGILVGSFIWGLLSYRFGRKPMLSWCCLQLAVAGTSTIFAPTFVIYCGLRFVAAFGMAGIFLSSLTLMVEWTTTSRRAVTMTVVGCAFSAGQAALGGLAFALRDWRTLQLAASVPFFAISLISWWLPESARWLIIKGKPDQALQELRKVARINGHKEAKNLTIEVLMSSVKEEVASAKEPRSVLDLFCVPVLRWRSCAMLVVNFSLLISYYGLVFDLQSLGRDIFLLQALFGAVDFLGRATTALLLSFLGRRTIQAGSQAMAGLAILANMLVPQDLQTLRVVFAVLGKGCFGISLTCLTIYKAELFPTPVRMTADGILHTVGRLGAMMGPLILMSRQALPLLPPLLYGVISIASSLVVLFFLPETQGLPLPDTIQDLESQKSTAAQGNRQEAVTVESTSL
Procedure: The human transporters OATP1B1, OATP1B3, OATP2B1, and OAT1‐OAT4 and a negative control protein (enhanced yellow fluorescent protein, eYFP) were transiently expressed in human embryonic kidney 293 (HEK293) cells by recombinant baculovirus‐mediated transduction. Baculoviruses carrying human genes for the transporters were prepared as reported previously. HEK293 cells were cultured in DMEM containing 10% fetal bovine serum at 37°C and 5% CO2 and passaged two to three times per week. For the transport studies, 0.05 × 10^6 cells for 48‐well plates (OATPs) or 0.06 × 10^6 cells for 24‐well plates (OATs) were seeded onto cell‐culture treated well plates coated with poly‐D‐lysine. After 1 day, cells were transduced to produce recombinant proteins by changing media to DMEM containing 30 μL (48‐well plates) or 60 μL (24‐well plates) of recombinant baculovirus and 3 mM (OATs) or 5 mM (OATPs) sodium butyrate in a total media volume of 500 μL. The cells were cultured for a further 2 days before the transport assays.
For the transport studies, media were removed and cells were washed once with warm transport uptake buffer (TP‐buffer—pH 7.4 HBSS with 25 mM HEPES and 4 mM sodium bicarbonate). Each experiment included triplicate (OATP) or duplicate (OAT) samples for every test condition. The uptake was started by removing liquid from wells and applying warm TP‐buffer (200 μL for 24‐well plates or 125 μL for 48‐well plates) containing a test compound to cells. Transport assays were terminated after a pre‐specified incubation time (reported in figure legends) by removing substrate solution and washing cells three times with cold TP‐buffer (300 μL for 48‐well plates and 400 μL for 24‐well plates). For the liquid chromatography mass spectrometry (LC–MS) analysis, compounds were extracted from cells with 125 μL (48‐well plates) or 250 μL (24‐well plates) of an ultrapure‐water solution containing 75% methanol and 0.1% formic acid, shaking at 250 RPM for 30 min. […] Samples were transferred to well plates, centrifuged at 3000 g for 30 min, and transferred to a new well plate for the analysis.
Equation (2) (the Michaelis–Menten equation) was fit to the transport kinetic assay data. […] (2) Uptake=Vmax×S/Km+S

P-gp = target: T2, P-gp (Homo sapiens, UniProt P08183); experiment: Efflux transport assay in P-gp HEK293 membrane vesicles; type: biochemical; conditions: 5 and 50 µM, 10 min
T2 construct: made in house; host or cells: membrane vesicles from HEK293 cells expressing the transporter
Procedure: Membrane vesicles, 5 μL (7.5 μg of total protein), prepared as previously reported, were aliquoted to wells of a conical‐shaped 96‐well plate. The plate was incubated for 10 min at +37°C before the initiation of transport by adding 25 μL of TS‐buffer (10 mM Tris, 250 mM sucrose, pH adjusted to 7.4 with HEPES) containing magnesium chloride (10 mM final in the reaction), adenosine triphosphate (ATP) or adenosine monophosphate (AMP), 4 mM final in the reaction, and the transporter substrate and inhibitor. Each experiment included triplicate samples for both ATP and AMP samples. The concentrations of rosuvastatin and N‐methyl‐quinidine were 1 μM in the BCRP and P‐gp vesicle inhibition assays, respectively. […] The transport reactions were quenched by adding 200 μL of cold TS‐buffer to each well and transferring the samples to a 96‐multiwell 1.0 μm glass fiber filter plate (Merck Millipore, Darmstadt, Germany) kept under vacuum. Wells were further washed four times with cold TS‐buffer, after which the plate was dried under vacuum. The compounds were eluted from the plate by applying 100 μL of 75% methanol containing 0.1% formic acid to each well and incubating at 250 RPM for 30 min before centrifuging the samples to an analysis plate at 2800 g for 2 min. For the rosuvastatin samples, the elution solvent contained rosuvastin‐d6 as the internal standard. […]

[3] = PBPK model input parameters (binding, absorption, distribution, elimination), Simcyp; design: species or system human
Procedure: The volume of distribution
at steady-state (Vss), predicted using the Rodgers and Rowland model (Model 2) within the
oral (PO) data.7–9,11,12,14,24 Only studies with 1000 mg dosing or lower were included in the
model development and verification due to the possible nonlinear renal clearance of
(CLH) as a human liver microsomal clearance from the in vivo CLH calculated by subtracting
the CLR from the total CL. The model for oral dosing was optimized using data from the study
by Putnam et al. (2005).9 The absorption rate constant (ka) was calculated from the reported
mean absorption time9 and the fraction absorbed (fa) was optimized manually. The obtained
Tissue distribution was described using the full-body PBPK model, with the tissue-to-plasma
partition coefficient (Kp) predicted based on the Rodgers and Rowland method integrated
within the simulator (Method 2). The Kp value for adipose was optimized manually (0.04 to

[4] = 6.25 mg/kg PO, ref Jusko et al. 1975 11
[5] = 250 mg IV, ref DeSante et al. 1980 7
[6] = 250 mg PO, ref Sutherland et al. 1970 10
[7] = 500 mg PO, ref Beringer et al. 2008 12
[8] = 500 mg PO, ref Gravenkemper et al. 1965 13
[9] = 500 mg PO, ref Røder et al. 1995 14
[10] = 750 mg PO, ref Røder et al. 1995 14
[11] = 1000 mg PO, ref Gravenkemper et al. 1965 13
[12] = 1000 mg PO, ref Putnam et al. 2005 9
[13] = 1000 mg PO, ref Røder et al. 1995 14
[14] = retrograde calculation from CLH (2.65 l/h)
[15] = 125 mg PO, ref Sutherland et al. 1970 10
[16] = 250 mg PO, ref Bodey et al. 1972 20
[17] = 500 mg IV, ref Landersdorfer et al. 2007 15
[18] = 500 mg IV, ref Landersdorfer et al. 2008 17
[19] = 500 mg PO, ref Bodey et al. 1972 20
[20] = 1000 mg IV, ref Adam et al. 1983 18
[21] = 1000 mg IV, ref Landersdorfer et al. 2007 15
[22] = 1000 mg IV, ref Landersdorfer et al. 2008 17
[23] = 1000 mg IV, ref Wise et al. 1980 19
[24] = 1000 mg PO MD (day 9), ref Iversen et al. 2023 22
[25] = 1000 mg PO MD (day 27), ref Iversen et al. 2023 22
[26] = 1000 mg PO SD, ref Iversen et al. 2023 22
[27] = 1000 mg PO, ref Everts et al. 2020 16
[28] = 1000 mg PO, ref Gardiner et al. 2018 21

T2 sequence (P08183 whole entry): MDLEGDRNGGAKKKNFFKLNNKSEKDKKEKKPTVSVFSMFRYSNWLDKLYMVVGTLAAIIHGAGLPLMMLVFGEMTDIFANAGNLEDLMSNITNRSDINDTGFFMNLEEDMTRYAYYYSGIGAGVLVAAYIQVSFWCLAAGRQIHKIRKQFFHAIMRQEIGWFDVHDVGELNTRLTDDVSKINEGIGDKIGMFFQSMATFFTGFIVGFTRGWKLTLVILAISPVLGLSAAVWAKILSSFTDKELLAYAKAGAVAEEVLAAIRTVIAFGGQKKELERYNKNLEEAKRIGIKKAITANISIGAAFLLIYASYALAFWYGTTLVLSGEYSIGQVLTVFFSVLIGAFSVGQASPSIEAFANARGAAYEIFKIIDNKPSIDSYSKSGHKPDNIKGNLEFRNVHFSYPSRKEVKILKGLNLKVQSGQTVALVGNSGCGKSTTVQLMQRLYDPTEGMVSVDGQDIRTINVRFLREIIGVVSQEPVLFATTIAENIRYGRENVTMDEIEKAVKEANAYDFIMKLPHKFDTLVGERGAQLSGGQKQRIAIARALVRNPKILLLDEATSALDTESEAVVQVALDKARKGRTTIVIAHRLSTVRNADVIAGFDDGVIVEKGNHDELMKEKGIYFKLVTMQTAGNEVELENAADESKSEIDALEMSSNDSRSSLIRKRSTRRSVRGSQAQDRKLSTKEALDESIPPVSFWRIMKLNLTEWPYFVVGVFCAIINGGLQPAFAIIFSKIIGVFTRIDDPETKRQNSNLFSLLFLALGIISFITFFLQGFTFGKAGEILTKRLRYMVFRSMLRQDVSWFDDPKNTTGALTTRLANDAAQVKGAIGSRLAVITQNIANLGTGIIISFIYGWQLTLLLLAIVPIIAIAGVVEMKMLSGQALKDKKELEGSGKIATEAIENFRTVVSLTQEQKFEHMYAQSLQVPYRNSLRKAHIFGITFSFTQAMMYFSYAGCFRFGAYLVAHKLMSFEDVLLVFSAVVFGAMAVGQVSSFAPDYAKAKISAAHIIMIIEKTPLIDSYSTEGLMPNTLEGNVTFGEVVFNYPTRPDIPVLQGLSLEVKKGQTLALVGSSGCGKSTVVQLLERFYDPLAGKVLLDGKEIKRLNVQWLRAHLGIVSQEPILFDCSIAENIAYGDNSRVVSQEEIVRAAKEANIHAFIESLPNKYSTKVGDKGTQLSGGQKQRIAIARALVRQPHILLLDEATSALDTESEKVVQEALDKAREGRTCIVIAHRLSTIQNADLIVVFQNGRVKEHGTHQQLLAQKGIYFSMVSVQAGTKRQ

Cc1onc(-c2c(Cl)cccc2Cl)c1C(=O)N[C@@H]1C(=O)N2[C@@H]1SC(C)(C)[C@@H]2C(=O)O [Dicloxacillin]
AUC (mg*h/l) Obs [1, 4]: 33.8 mg·h/L
Cmax (mg/l) Obs [1, 4]: 18.4 mg/L
AUC (mg*h/l) Obs [1, 5]: 23.8 mg·h/L
Cmax (mg/l) Obs [1, 5]: 56.5 mg/L
AUC (mg*h/l) Obs [1, 6]: 19.1 mg·h/L
Cmax (mg/l) Obs [1, 6]: 11.0 mg/L
AUC (mg*h/l) Obs [1, 7]: 36.6 mg·h/L
Cmax (mg/l) Obs [1, 7]: 11.1 mg/L
AUC (mg*h/l) Obs [1, 8]: 41.1 mg·h/L
Cmax (mg/l) Obs [1, 8]: 17.4 mg/L
AUC (mg*h/l) Obs [1, 9]: 30.8 mg·h/L
Cmax (mg/l) Obs [1, 9]: 17.3 mg/L
AUC (mg*h/l) Obs [1, 10]: 66.8 mg·h/L
Cmax (mg/l) Obs [1, 10]: 34.4 mg/L
AUC (mg*h/l) Obs ([1]; 1000 mg IV, ref Nauta and Mattie 1976 8): 114 mg·h/L
AUC (mg*h/l) Obs [1, 11]: 72.4 mg·h/L
Cmax (mg/l) Obs [1, 11]: 28.9 mg/L
AUC (mg*h/l) Obs [1, 12]: 78.0 mg·h/L
Cmax (mg/l) Obs [1, 12]: 31.4 mg/L
AUC (mg*h/l) Obs [1, 13]: 82.5 mg·h/L
Cmax (mg/l) Obs [1, 13]: 30.7 mg/L
fraction absorbed, range reported ([1]; dicloxacillin capsules): 35 – 76%
Total CL [1]: 8.885 L/h
decrease of renal clearance by probenecid [2]: 4 fold
increase of C max and AUC by cyclosporine and probenecid [2]: < 2 fold
transport by OAT4 (OAT4): transported
Vmax (pmol/106 cells/min) OAT4 (OAT4): 239 pmol/106 cells/min
transport by P-gp (P-gp): did not transport

Cc1onc(-c2c(F)cccc2Cl)c1C(=O)N[C@@H]1C(=O)N2[C@@H]1SC(C)(C)[C@@H]2C(=O)O [Flucloxacillin]
CLH ([3]; Total CL – CLR): 2.65 L/h
CLu,int,CYP2C9 (µl/min/pmol P450) [3, 14]: 0.124 µl/min/pmol P450
CLu,int,CYP3A4 (µl/min/pmol P450) [3, 14]: 0.062 µl/min/pmol P450
AUC (mg*h/l) Obs [1, 15]: 8.28 mg·h/L
Cmax (mg/l) Obs [1, 15]: 5.8 mg/L
AUC (mg*h/l) Obs [1, 16]: 14.6 mg·h/L
Cmax (mg/l) Obs [1, 16]: 5.7 mg/L
AUC (mg*h/l) Obs [1, 6]: 14.4 mg·h/L
Cmax (mg/l) Obs [1, 6]: 11.0 mg/L
AUC (mg*h/l) Obs [1, 17]: 60.9 mg·h/L
Cmax (mg/l) Obs [1, 17]: 86.8 mg/L
AUC (mg*h/l) Obs [1, 18]: 54.8 mg·h/L
Cmax (mg/l) Obs [1, 18]: 87.7 mg/L
AUC (mg*h/l) Obs [1, 19]: 29.1 mg·h/L
Cmax (mg/l) Obs [1, 19]: 11.4 mg/L
Cmax (mg/l) Obs ([1]; 500 mg PO, ref Sutherland et al. 1970 10): 14.7 mg/L
AUC (mg*h/l) Obs [1, 10]: 67.8 mg·h/L
Cmax (mg/l) Obs [1, 10]: 34.5 mg/L
AUC (mg*h/l) Obs [1, 20]: 141 mg·h/L
Cmax (mg/l) Obs [1, 20]: 236 mg/L
AUC (mg*h/l) Obs [1, 21]: 122 mg·h/L
Cmax (mg/l) Obs [1, 21]: 167 mg/L
AUC (mg*h/l) Obs [1, 22]: 113 mg·h/L
Cmax (mg/l) Obs [1, 22]: 173 mg/L
AUC (mg*h/l) Obs [1, 23]: 73.6 mg·h/L
Cmax (mg/l) Obs [1, 23]: 140 mg/L
AUC (mg*h/l) Obs [1, 24]: 56 mg·h/L
Cmax (mg/l) Obs [1, 24]: 20 mg/L
AUC (mg*h/l) Obs [1, 25]: 64 mg·h/L
Cmax (mg/l) Obs [1, 25]: 24 mg/L
AUC (mg*h/l) Obs [1, 26]: 51 mg·h/L
Cmax (mg/l) Obs [1, 26]: 21 mg/L
AUC (mg*h/l) Obs [1, 27]: 82 mg·h/L
Cmax (mg/l) Obs [1, 27]: 31 mg/L
AUC (mg*h/l) Obs [1, 28]: 71.6 mg·h/L
Cmax (mg/l) Obs [1, 28]: 27.4 mg/L
ka reported range [1]: 0.17 to 18.2 h⁻¹
CLR ([1]; mean from reported IV studies): 5.1 L/h
Total CL [1]: 7.75 L/h
transport by OAT4 (OAT4): transported
Vmax (pmol/106 cells/min) OAT4 (OAT4): 245 pmol/106 cells/min
transport by P-gp (P-gp): did not transport
